# Results reported in patent US9029337B2, “Modulation of factor 7 expression” (Isis Pharmaceuticals, Inc., priority 2007, dated 2015).
# Strand notation (5' to 3'): a small letter for the sugar, then the base; units joined by * are phosphorothioate-linked, units joined directly phosphodiester-linked; [ ] holds rarer units or linkages, { } end groups; capitals alone tell only the bases. e = 2'-O-(2-methoxyethyl) (MOE); [5mC] = 5-methylcytosine; d = 2'-deoxy (DNA)
# Test system: human Factor 7 mRNA
# Assay: Antisense inhibition of human Factor 7 mRNA in HepB3 cells, 50 nM antisense oligonucleotide, lipofectin
# Format: cell-based
# Conditions: Table 1, 50 nM, lipofectin, approximately 24 hours, relative to untreated control cells
# Outline: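 Seeding density was 4,000 cells per well. Following roughly 24 hours of oligonucleotide treatment, RNA was extracted and Factor 7 message quantified using the RTS 2927 primer probe set. Levels were corrected for RIBOGREEN® total RNA and expressed against untreated controls.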
row,Substance,% Inhibition
1,407632 (antisense eT*e[5mC]*e[5mC]*eG*eT*dT*d[5mC]*dG*dG*dG*d[5mC]*dA*dG*dG*d[5mC]*eA*eG*eA*eG*eG) [compound 407632],46%
2,407941 (antisense eG*eA*eG*eA*e[5mC]*dG*d[5mC]*dA*dG*d[5mC]*d[5mC]*dG*dT*dT*dT*eA*eT*eT*eG*eT) [compound 407941],65%
3,407651 (antisense eA*eG*e[5mC]*e[5mC]*eT*d[5mC]*dA*dA*dA*d[5mC]*dA*dT*d[5mC]*dT*dA*eT*e[5mC]*eA*eA*eA) [compound 407651],32%
4,407613 (antisense eT*eG*e[5mC]*eT*e[5mC]*dA*d[5mC]*dA*dG*d[5mC]*d[5mC]*dG*d[5mC]*d[5mC]*dG*eT*eT*e[5mC]*eT*e[5mC]) [compound 407613],66%
5,407656 (antisense e[5mC]*eA*eG*e[5mC]*eA*dA*dG*dA*dG*dT*dG*d[5mC]*dA*dG*d[5mC]*eT*eT*eG*e[5mC]*e[5mC]) [compound 407656],43%
6,407631 (antisense eG*eG*eG*e[5mC]*eA*d[5mC]*d[5mC]*dA*d[5mC]*dA*dT*dG*dG*dT*d[5mC]*eA*eG*eT*eG*eA) [compound 407631],66%
7,407639 (antisense eT*eT*eT*eG*e[5mC]*dA*dG*d[5mC]*d[5mC]*dA*d[5mC]*dT*d[5mC]*dG*dA*eT*eG*eT*eA*e[5mC]) [compound 407639],76%

# Same assay, conditions: Table 6, 50 nM, lipofectin, approximately 24 hours
row,Substance,% Inhibition
1,422189 (antisense e[5mC]*eG*e[5mC]*dG*dG*dA*dA*dG*dA*dA*dG*dG*dG*dA*d[5mC]*dG*dG*eA*eA*eG) [compound 422189],0%
2,422187 (antisense e[5mC]*eG*eG*dA*dA*dG*dA*dA*dG*dG*dG*dA*d[5mC]*dG*dG*dA*dA*eG*eG*eT) [compound 422187],28%
3,422124 (antisense eT*eG*eA*eG*e[5mC]*dG*d[5mC]*dG*dG*dA*dA*dG*dA*dA*dG*eG*eG*eA*e[5mC]*eG) [compound 422124],0%
4,422264 (antisense e[5mC]*eG*dG*dA*dA*dG*dA*dA*dG*dG*dG*dA*d[5mC]*dG*dG*eA*eA*eG*eG*eT) [compound 422264],24%
5,422269 (antisense eG*eA*dG*d[5mC]*dG*d[5mC]*dG*dG*dA*dA*dG*dA*dA*dG*dG*eG*eA*e[5mC]*eG*eG) [compound 422269],27%

# Same assay, conditions: Table 13 (microwalk), 50 nM, lipofectin, approximately 24 hours
row,Substance,% Inhibition
1,422226 (antisense e[5mC]*eA*dT*dG*dG*dT*dG*dA*dT*dG*d[5mC]*dT*dT*d[5mC]*dT*eG*eA*eA*eT*eT) [compound 422226],41%
2,422227 (antisense eG*e[5mC]*dA*dT*dG*dG*dT*dG*dA*dT*dG*d[5mC]*dT*dT*d[5mC]*eT*eG*eA*eA*eT) [compound 422227],67%

# Same assay, conditions: lipofectin, 50 nM antisense oligonucleotide, approximately 24 hours, Factor 7 mRNA by real-time RT-PCR (RTS 2927), relative to untreated control
row,Substance,% Inhibition
1,416516 (antisense eG*eT*eG*eA*eG*dA*dA*dT*dA*d[5mC]*dA*dA*d[5mC]*dA*dG*eA*eT*eG*eA*eG) [compound 416516],24%
2,416562 (antisense eA*eA*eA*eG*e[5mC]*dA*dG*dA*dG*d[5mC]*d[5mC]*dA*dG*d[5mC]*dT*e[5mC]*eT*eG*eA*e[5mC]) [compound 416562],12%
3,416457 (antisense eG*eG*eA*eT*eG*dA*dT*dG*dA*d[5mC]*d[5mC]*dT*dG*d[5mC]*dG*e[5mC]*e[5mC]*eA*e[5mC]*e[5mC]) [compound 416457],48%
4,416429 (antisense eA*e[5mC]*eG*e[5mC]*e[5mC]*dG*dT*dG*dG*dG*d[5mC]*dT*dT*d[5mC]*d[5mC]*eT*e[5mC]*e[5mC]*eT*eG) [compound 416429],47%
5,416510 (antisense eG*eA*e[5mC]*eG*eA*dG*dG*d[5mC]*d[5mC]*dT*d[5mC]*dA*dG*dG*dT*eG*eG*eA*e[5mC]*eG) [compound 416510],30%
6,416448 (antisense eT*eT*eT*eT*eT*d[5mC]*d[5mC]*dA*d[5mC]*dA*dT*dG*dG*dA*dT*eA*eT*eT*e[5mC]*eA) [compound 416448],34%
7,416461 (antisense eG*eA*eA*eG*e[5mC]*dG*d[5mC]*dA*d[5mC]*dG*dA*dA*dG*dG*d[5mC]*e[5mC]*eA*eG*e[5mC]*eG) [compound 416461],43%
8,416474 (antisense eT*eG*eT*e[5mC]*eT*dG*d[5mC]*d[5mC]*dT*d[5mC]*d[5mC]*dA*dG*dG*dA*e[5mC]*eA*eA*e[5mC]*e[5mC]) [compound 416474],40%
9,416553 (antisense eG*eG*eT*eT*e[5mC]*dT*d[5mC]*dT*dG*d[5mC]*dA*d[5mC]*dA*dG*dG*eG*eT*eA*eG*eA) [compound 416553],56%
10,416532 (antisense eG*eG*eA*e[5mC]*e[5mC]*d[5mC]*dA*dG*dA*dT*dG*dA*d[5mC]*d[5mC]*dA*eG*e[5mC]*eA*eG*eG) [compound 416532],12%
11,416511 (antisense eT*eT*eG*e[5mC]*eT*dG*dG*dG*dA*dG*dG*dA*d[5mC]*dG*dA*eG*eG*e[5mC]*e[5mC]*eT) [compound 416511],35%
12,416470 (antisense eG*e[5mC]*eT*eT*eT*dT*dG*d[5mC]*dA*dG*d[5mC]*d[5mC]*dA*d[5mC]*dT*e[5mC]*eG*eA*eT*eG) [compound 416470],39%
13,416540 (antisense eG*eG*eA*e[5mC]*eT*dG*dG*dT*dG*dT*d[5mC]*dA*dT*d[5mC]*dT*eG*eG*eG*eA*e[5mC]) [compound 416540],38%
14,416557 (antisense eT*e[5mC]*e[5mC]*e[5mC]*eA*dG*dG*d[5mC]*dA*dA*dA*dG*d[5mC]*dT*dG*e[5mC]*eT*e[5mC]*eA*eG) [compound 416557],56%
15,416450 (antisense eG*eG*eT*eT*eT*dG*d[5mC]*dT*dG*dG*d[5mC]*dA*dT*dT*dT*e[5mC]*eT*eT*eT*eT) [compound 416450],49%
16,416503 (antisense eT*eA*eG*e[5mC]*e[5mC]*dA*d[5mC]*d[5mC]*d[5mC]*d[5mC]*dG*d[5mC]*dG*dG*dG*e[5mC]*eT*eG*eG*e[5mC]) [compound 416503],0%

# Same assay, conditions: oligonucleotides targeted to nucleobases 11830 to 11869 of SEQ ID NO: 1 (Table 9)
row,Substance,% Inhibition (human Factor 7 mRNA levels)
1,422167 (antisense eG*eA*eG*dG*dA*dG*dA*d[5mC]*dA*dA*dT*dG*dG*dT*d[5mC]*dA*dG*eG*eG*e[5mC]) [compound 422167],53%
2,422234 (antisense eT*eG*dG*dT*d[5mC]*dA*dG*dG*dG*d[5mC]*dT*dG*dG*dT*dT*eT*eT*eG*eG*eA) [compound 422234],62%
3,422235 (antisense eA*eT*dG*dG*dT*d[5mC]*dA*dG*dG*dG*d[5mC]*dT*dG*dG*dT*eT*eT*eT*eG*eG) [compound 422235],50%
4,422156 (antisense eG*eG*eT*d[5mC]*dA*dG*dG*dG*d[5mC]*dT*dG*dG*dT*dT*dT*dT*dG*eG*eA*eG) [compound 422156],38%
5,422162 (antisense eG*eA*e[5mC]*dA*dA*dT*dG*dG*dT*d[5mC]*dA*dG*dG*dG*d[5mC]*dT*dG*eG*eT*eT) [compound 422162],59%
6,422089 (antisense eG*eT*e[5mC]*eA*eG*dG*dG*d[5mC]*dT*dG*dG*dT*dT*dT*dT*eG*eG*eA*eG*eG) [compound 422089],22%

# Same assay, conditions: oligonucleotides targeted to nucleobases 13760 to 13789 of SEQ ID NO: 1 (Table 10)
row,Substance,% Inhibition (human Factor 7 mRNA levels)
1,422262 (antisense e[5mC]*eT*dG*d[5mC]*dG*d[5mC]*d[5mC]*dA*d[5mC]*d[5mC]*d[5mC]*dG*d[5mC]*d[5mC]*dG*eG*e[5mC]*eT*e[5mC]*eT) [compound 422262],0%

# Same assay, conditions: oligonucleotides targeted to nucleobases 14707 to 14732 of SEQ ID NO: 1 (Table 11)
row,Substance,% Inhibition (human Factor 7 mRNA levels)
1,422131 (antisense eA*eG*e[5mC]*e[5mC]*eT*dG*dA*dG*dG*d[5mC]*d[5mC]*dA*dG*d[5mC]*dA*eG*eA*eT*e[5mC]*eA) [compound 422131],68%
2,422282 (antisense eA*eG*d[5mC]*dA*dG*d[5mC]*d[5mC]*dT*dG*dA*dG*dG*d[5mC]*d[5mC]*dA*eG*e[5mC]*eA*eG*eA) [compound 422282],48%
3,422203 (antisense e[5mC]*eA*eG*d[5mC]*d[5mC]*dT*dG*dA*dG*dG*d[5mC]*d[5mC]*dA*dG*d[5mC]*dA*dG*eA*eT*e[5mC]) [compound 422203],52%

# Same assay, conditions: oligonucleotides targeted to nucleobases 15098 to 15122 of SEQ ID NO: 1 (Table 12)
row,Substance,% Inhibition (human Factor 7 mRNA levels)
1,422135 (antisense eA*eG*e[5mC]*eA*e[5mC]*dA*d[5mC]*dA*dT*dG*dG*dA*dG*dT*d[5mC]*eA*eG*e[5mC]*eA*eT) [compound 422135],53%
2,422289 (antisense eG*eA*d[5mC]*dA*dG*d[5mC]*dA*d[5mC]*dA*d[5mC]*dA*dT*dG*dG*dA*eG*eT*e[5mC]*eA*eG) [compound 422289],34%
3,422288 (antisense eA*e[5mC]*dA*dG*d[5mC]*dA*d[5mC]*dA*d[5mC]*dA*dT*dG*dG*dA*dG*eT*e[5mC]*eA*eG*e[5mC]) [compound 422288],44%
